Holding throughout (assay type): cell-based
Test [1] has as its target T1, Kir7.1 (hKir7.1) (Homo sapiens, UniProt O60928).
T1 sequence (O60928 1-360): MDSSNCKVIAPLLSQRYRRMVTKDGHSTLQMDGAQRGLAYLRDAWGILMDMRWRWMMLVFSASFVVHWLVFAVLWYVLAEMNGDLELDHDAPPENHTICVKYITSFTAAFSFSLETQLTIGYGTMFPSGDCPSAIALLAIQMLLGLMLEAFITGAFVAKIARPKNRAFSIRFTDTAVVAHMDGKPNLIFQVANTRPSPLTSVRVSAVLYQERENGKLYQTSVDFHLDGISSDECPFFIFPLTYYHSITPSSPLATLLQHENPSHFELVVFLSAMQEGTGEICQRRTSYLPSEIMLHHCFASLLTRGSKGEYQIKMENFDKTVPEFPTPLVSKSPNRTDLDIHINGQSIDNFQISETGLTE
In words: whole-cell patch clamp, inhibition of P4-activated current. Set-up: gene KCNJ13; recombinant hKir7.1 in HEK293 cells.

For test [2], the target named is T1, Kir7.1 (hKir7.1). Description: whole-cell patch clamp, dose response of current potentiation at -80 mV. Details: gene KCNJ13; recombinant hKir7.1 (pIRES2-eGFP-hKir7.1) in HEK293 cells and HUtSMCs.
The target in another test is T2, murine Kir7.1 (Mus musculus, UniProt P86046).
T2 construct: gene Kcnj13; recombinant murine Kir7.1 in HEK293 cells
T2 sequence (P86046 1-360): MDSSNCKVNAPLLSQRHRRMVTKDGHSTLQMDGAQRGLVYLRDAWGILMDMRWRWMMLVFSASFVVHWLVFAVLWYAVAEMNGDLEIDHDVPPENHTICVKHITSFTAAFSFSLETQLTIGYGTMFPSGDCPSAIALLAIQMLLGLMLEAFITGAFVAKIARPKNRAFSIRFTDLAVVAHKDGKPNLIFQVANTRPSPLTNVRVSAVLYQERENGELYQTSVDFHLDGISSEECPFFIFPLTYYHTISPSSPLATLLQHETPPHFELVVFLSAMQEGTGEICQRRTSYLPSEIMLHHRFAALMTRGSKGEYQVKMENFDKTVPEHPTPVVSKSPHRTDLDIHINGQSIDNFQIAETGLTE
Description: whole-cell patch clamp, dose response of current potentiation.

As for `C[C@]12CC[C@@H]3c4ccc(O)cc4CC[C@H]3[C@@H]1CC[C@@H]2O` [E2, 17β-estradiol], the IC50 on Kir7.1 (hKir7.1) [1] was determined as 8.6 µM.
In the case of `CC(=O)[C@H]1CC[C@H]2[C@@H]3CCC4=CC(=O)CC[C@]4(C)[C@H]3CC[C@]12C` [P4, progesterone], the EC50 is ~ 9.4 and 11.5 μM at Kir7.1 (hKir7.1) [2]; ~ 9.4 and 11.5 μM at murine Kir7.1.

The values above are taken from publication PMC11881918, “Kir7.1 is the physiological target for hormones and steroids that regulate uteroplacental function” (Science Advances, 2025).
